Results on 8 molecules are retold here after PubChem BioAssay (NCI).

Molecules are shown by their SMILES. Values joined by “and” are separate entries in the source; they are usually repeats but may differ in a detail not shown here. Identical values can stand only once.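 Exposure lasted 48 hours, with cells grown in 96-well plates and compounds tested at five concentrations. GI50: concentration for 50% inhibition of growth. TGI marks complete inhibition of growth.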

What all share (assay): DTP human tumour cell line panel, 48 h
For assay [1], the system named is 786-0 renal.
The subject of assay [2] is ACHN renal.
Assay [3] relates to HCT-116 colon.
Assay [4] concerns HL-60(TB) leukemia.
For assay [5], the system named is IGROV1 ovarian.
Assay [6] concerns NCI-H226 lung.
Assay [7] has as its system RXF 393 renal.
Assay [8] concerns SF-539 CNS.
Assay [9] has as its system SK-MEL-28 melanoma.
In assay [10] the test system is SK-OV-3 ovarian.

On to `Cc1ccc(C(=O)c2oc3ccc4c(C)cc(=O)oc4c3c2C)cc1`, for which the GI50 (in general, the concentration that inhibits growth by half) in assay [1] is 5.96 µM; in [2], 3.65 µM; in [3] it was 43.8 µM; in assay [4] it was 13.4 µM; in assay [5], 13.8 µM; in assay [6], 11.7 µM. In addition, the GI50 in [7] is 13.8 µM; in assay [8] it was 1.41 µM; in assay [9], 6.37 µM; in assay [10], 18 µM. Also, the total growth inhibition concentration (TGI) (usually the concentration at which net growth stops) is greater than 100 µM in assay [1]; 94.3 µM in [2]; greater than 100 µM in [3]; greater than 100 µM in [4]; greater than 100 µM in assay [5]; greater than 100 µM in assay [6]. Further, the concentration for total growth inhibition (TGI) was 91 µM in assay [7], 20.1 µM in assay [8], greater than 100 µM in [9] and greater than 100 µM in [10].
With `C[CH2][Sn]1([CH2]C)[O]C(=O)[O][Sn]([CH2]C)([CH2]C)[O]1`, the GI50 is 17.6 µM in assay [1]; greater than 50.4 µM in assay [2]; greater than 42.9 µM in assay [3]; 26.4 µM in assay [4]; greater than 57.6 µM in assay [5]; greater than 43.8 µM in [6]. Besides, the GI50 is 15.5 µM in [7], 19.7 µM in assay [8], 13 µM in assay [9] and greater than 100 µM in [10]. For the same molecule, the TGI in assay [1] was 32 µM; in [2], greater than 64.6 µM; in assay [3], greater than 57.7 µM; in [4] it was 81.7 µM; in [5], greater than 87.8 µM; in [6] it was greater than 58.4 µM. Also, the TGI in [7] is 30.3 µM; in assay [8], 38.5 µM; in [9] it was 25.8 µM; in [10] it was greater than 100 µM.
On to `Oc1ccc(N=Nc2ccc(Cl)cc2)cc1`, for which the concentration for total growth inhibition (TGI) in assay [1] turned out to be 31.5 µM; in [2] it was 27.7 µM; in [3], 29.4 µM; in assay [4], 52.3 µM; in assay [5], 29.3 µM; in assay [6], 35.6 µM. For the same molecule, the total growth inhibition concentration (TGI) in assay [7] worked out at 30.3 µM; in assay [8] it was 36.7 µM; in assay [9], 54.1 µM; in assay [10], 47.3 µM.
On to `CN(C)c1ccc(/C=C2\Oc3cc(O)ccc3C2=O)cc1`, for which the total growth inhibition concentration (TGI) in assay [1], in assay [2], in assay [3], in [4], in [5] and in assay [6] was greater than 100 µM in each case. For the same molecule, the total growth inhibition concentration (TGI) in assay [7], in assay [8], in assay [9] and in [10] was greater than 100 µM in each case.
Take `COc1cc2c(cc1C)NC(=O)/C2=C\c1cc(OC)c(OC)c(OC)c1`: the GI50 is 32.4 µM in [1]; 64.1 µM in assay [2]; 33 µM in assay [3]; 13.8 µM in [4]; 72.1 µM in assay [5]; greater than 100 µM in [6]. Besides, the GI50 in [7] is 14.2 µM; in assay [8], 48.4 µM; in [9], greater than 100 µM; in [10] it was 83.3 µM. The TGI in assay [1] is greater than 100 µM; in assay [2], greater than 100 µM; in assay [3], greater than 100 µM; in [4], 45.7 µM; in [5] it was greater than 100 µM; in assay [6], greater than 100 µM. Moreover, the TGI in assay [7] was 36.1 µM; in assay [8], greater than 100 µM; in assay [9], greater than 100 µM; in assay [10], greater than 100 µM.
As to `O=[N+]([O-])c1ccc2[nH]cc(-c3c4ccsc4cc4[nH]c5ccc([N+](=O)[O-])cc5c34)c2c1`, the GI50 is 0.877 µM in assay [1]; 1.52 µM in [2]; 0.865 µM in [3]; 1.1 µM in assay [4]; 1.65 µM in [5]; 0.967 µM in assay [6]. The GI50 was 0.592 µM in [7], 0.697 µM in assay [8], 1.38 µM in assay [9] and 1.25 µM in assay [10]. Also, the TGI came out at 3.52 µM in [1]; 14.9 µM in assay [2]; 5.37 µM in [3]; 19.4 µM in assay [4]; 8.52 µM in assay [5]; 3.95 µM in assay [6]. In addition, the TGI in [7] was 1.85 µM; in [8], 1.91 µM; in assay [9] it was 6.44 µM; in [10], 7.21 µM.
For the molecule `O=c1ccn(C2OC(CO)C(O)C2O)c(=O)[nH]1` (stereo unspecified), the GI50 in assay [1], in assay [2], in assay [3], in [4], in assay [5] and in [7] was greater than 1000 µM throughout. Also, the GI50 in assay [8], in assay [9] and in [10] was greater than 1000 µM in each case. The concentration for total growth inhibition (TGI) in [1], in [2], in assay [3], in assay [4], in [5] and in [6] was greater than 1000 µM throughout. Moreover, the TGI in assay [7], in assay [8], in assay [9] and in assay [10] was greater than 1000 µM throughout.
As for `COc1cc(C2c3cc4c(cc3[C@@H](Nc3ccc(C(=O)O)cc3)C3COC(=O)[C@H]23)OCO4)cc(OC)c1O` (stereo partly specified), the GI50 is 12.3 µM and 3.07 µM in assay [1]; 34.4 µM and 15.3 µM in [10]. In addition, the TGI in assay [1] was 35 µM and > 17.5 µM; in [2] it was greater than 100 µM; in assay [3], 43.9 µM and > 17.5 µM; in assay [4], 22.8 µM and 16.7 µM; in assay [5], 68.6 µM and > 17.5 µM; in assay [6] it was 15.8 µM and 13.9 µM. The TGI in [7] was 37 µM and > 17.5 µM; in assay [8], 32.7 µM and > 17.5 µM; in [9] it was greater than 100 µM; in assay [10], greater than 100 µM.
